According to patent US8481494B2, “Compounds for the treatment of diseases related to protein misfolding” (priority 2009, dated 2013):
Values after ≈ are worked out from the molar mass of the structure shown.

Legend:
Aβ(1-42) = biological target: T1, Aβ(1-42) (Homo sapiens, UniProt P05067); assay: ThT kinetics of Aβ aggregation; type: biochemical; conditions: in words
T1 construct: Aβ(1-42)-peptide (Bachem, Bubendorf, Germany) was prepared in HFIP; purchased Bachem, Bubendorf
Procedure: The influence of the new β-sheet ligands, based on the aminopyrazole-trimer, on the Aβ self-assembly process was first studied kinetically. Reference curves were obtained independently for both Aβ (1-40) and Aβ (1-42). In a typical experiment, one third (⅓) equivalent of thioflavine T was added to a solution of monomeric Aβ in PBS buffer, prepared in HFIP. The increase in ThT fluorescence was monitored over time, as a measure of the total amount of accumulating aggregates. […] Both peptides reached a plateau after ˜3 days, which was set as standard time period for all consecutive aggregation assays.
Care was taken to eliminate fluorescence changes induced by any other events than the aggregation process; thus each ligand was separately shown to be non-fluorescent and not to alter Tht fluorescence in mixtures. Controls with pure Aβ were identical in peptide concentration as well as buffer and solvent composition. […] Aβ (1-42): Much more impressive is the inhibitory influence of the trimeric ligands on the aggregation kinetics of the full-length Aβ (1-42). […]
Then, a mixture of 9.5 μL ThT (62.7 μM stock solution), 6 μL PBS and 38.1 μL water (bidest.) was pipetted. […] Sixty μL of aggregation mixtures were pipetted in a 384-well plate and the fluorescence intensity (exc. at 446 nm, em. at 490 nm) was measured every hour at 37° C. […]

[1] = Solubility of the unprotected aminopyrazole trimers (stock solutions); conditions: water (class a) or DMSO (class b)
Procedure: The ligands were dissolved in 100% DMSO as 4.95 mM stock solutions and were stored at −20° C.

Oregon-Green-labeled Aβ = biological target: T2, Oregon-Green-labeled Aβ (Homo sapiens, UniProt P05067); assay: Sedimentation analysis (analytical ultracentrifugation) of Aβ with ligand; type: binding
T2 construct: aggregation mixtures of Aβ(1-42)/Aβ42-OG (17.5 nM/3.5 μM) in 10 mM NaPi, pH 7.4
Procedure: (§1) In a standard FCS experiment a 5 nM Oregon-Green-labeled Aβ solution was prepared in PBS buffer with ˜3% DMSO. […] This is not surprising, because it comprises a flat arrangement of unpolar aromatics adorned with polar groups for extensive hydrogen bonding. Finally, TEM pictures were obtained from mature Aβ fibrils ([…]) as well as globular particles (3-30 nm) grown in the absence of aminopyrazole ligands.
FIG. 6A to 6F show the results of sedimentation velocity centrifugation: s-value-distributions of Aβ samples in the presence of Trimer-OH (FIG. 6A, FIG. 6B, FIG. 6C) vs. Trim-TEG-OEt (FIG. 6D, FIG. 6E, FIG. 6F). […] FIG. 6B, FIG. 6E: s-value distributions of the control experiments as determined by 2D-SA and Monte Carlo analysis. FIG. 6C, FIG. 6F: s-value distributions of experiments with 200 μM Trimer derivative after 5 d of incubation as determined by 2D-SA and Monte Carlo analysis.
(§2) Sedimentation velocity centrifugation was performed in an XLA (BeckmanCoulter, Palo Alto, USA) equipped with absorption optics and a four hole titanium rotor. […] Radial scans were recorded at a resolution of 0.002 cm. Detection wavelength was chosen at 493 nm to observe endlabeled FITC or Oregon Green™ and to avoid background absorbance from the test compound.
Sedimentation data were analyzed with UltraScan 9.4 (http://www.ultrascan.uthscsa.edu). […]

[2] = Sedimentation of the pure ligand (self-association); type: physicochemical; conditions: ligand itself
Procedure: as §1
Such an arrangement may also result in far-reaching conformational effects, indicated already be widening of the upper U-turn; these are now proposed to destroy the existing β-sheet (FIG. 12). The high positive charge of all five lysine residues requires the use of PBS with its high ionic strength for sedimentation experiments. […] Admittedly, their structures are somewhat reminiscent of the amphiphilic hybrid peptides (e.g., KLVFF-EEEEE) presented in the nineties for aggregation prevention by surface tension increase. […]
as §2

T2 sequence (P05067 672-713 limits assumed): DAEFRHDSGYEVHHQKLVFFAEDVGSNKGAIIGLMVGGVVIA
T2 sequence (P05067 672-713 limits assumed): as above
T1 sequence (P05067 672-713 limits assumed): as above

solubility [1]	molecular weight reduction of Aβ aggregates (Oregon-Green-labeled Aβ; corresponding to decrease to 25 S)	sedimentation coefficient of Aβ complex with ligand (Oregon-Green-labeled Aβ; dose-dependent decrease, pure Aβ above 50 S)	size of micelles formed by self-association of the ligand [2]	Structure (SMILES)	effect on Aβ aggregation kinetics (Aβ(1-42))
				COC(=O)C(CCCCN)NC(=O)c1cc(NC(=O)c2cc(NC(=O)c3cc([N+](=O)[O-])n[nH]3)n[nH]2)n[nH]1.O=C(O)C(F)(F)F (centres unmarked) [Trimer-Lys-OMe]	accelerates Aβ aggregation
200 to 4950 µM (≈ 75.1 to 1860 µg/mL)	50%	25 S	~10 S	O=C(O)c1cc(NC(=O)c2cc(NC(=O)c3cc([N+](=O)[O-])n[nH]3)n[nH]2)n[nH]1 [Trimer-OH, 3-(3-(3-Nitro-1H-pyrazole-5-carboxamido)-1H-pyrazole-5-carboxamido)-1H-pyrazole-5-carboxylic acid]	
